According to ChEMBL document CHEMBL4765314, “Rational design and biological evaluation of gemfibrozil modified Xenopus GLP-1 derivatives as long-acting hypoglycemic agents” (Eur J Med Chem, 2020):
Activity calls are given as the source filed them. No cut-off for these calls is given here. Starred links: 1 amine or outer side, 2 acyl side, 3 side chain; linkers in the order of their positions; H or OH if unused. Residues, ends and D or L forms follow the SMILES beside them. Groups on a side chain read outwards from the residue. *: point of attachment. X1 = Cc1ccc(C)c(OCCCC(C)(C)C(=O)OCC(=O)NCCCCCCCCCC(NC(=O)COC(=O)C(C)(C)CCCOc2cc(C)ccc2C)C(=O)*)c1; γGlu = O=C(O)[C@H](CCC(=O)[*:2])N[*:1]

Key:
[1] = Hepatotoxicity in ICR mouse assessed as effect on alanine aminotransferase level at 1000 nmol/kg, sc administered once daily for 2 weeks; assay type: toxicity, organism-based; settings: in vivo, 336 h
[2] = test system: Mus musculus; assay: Improvement in glucose tolerance in db/db mouse at 25 nmol/kg, sc administered once daily for 42 days by OGTT; assay type: functional, organism-based; settings: time 42.0 day
[3] = Renal toxicity in ICR mouse assessed as effect on serum creatinine level at 1000 nmol/kg, sc administered once daily for 2 weeks; assay type: organism-based; settings: in vivo, 336 h
[4] = test system: Mus musculus; assay: Hypoglycemic activity in non-fasted sc dosed db/db mouse assessed as reduction in blood glucose treated 30 mins before glucose challenge and measured up to 48 hrs by OGTT method; assay type: functional, organism-based; settings: dose 25-100 nmol/kg, time min <=2910
[5] = test system: Mus musculus; assay: Improvement in glucose tolerance in standard chow diet fed C57BL/6 mouse at 25 nmol/kg, sc administered once daily for 21 days; assay type: functional, organism-based; settings: time 21.0 day
[6] = Inhibition of solid-phase gastric emptying in 12 hrs fasted ICR mouse assessed reduction in gastric emptying rate at 25 nmol/kg, ip allowed for food intake 1 hrs and measured after 4 hrs […]; assay type: functional; design: scale not given: the % may be the effect or the level left
[7] = test system: Mus musculus; assay: Reduction in body weight gain in db/db mouse at 25 nmol/kg, sc administered once daily for 21 days; assay type: functional, organism-based; settings: time 21.0 day
[8] = test system: Mus musculus; assay: Improvement in glucose tolerance in db/db mouse assessed as time for superior hypoglycemic effect by measuring glucose AUC at 25 nmol/kg, sc administered once daily for 42 days by OGTT; assay type: functional; settings: time 42 day
[9] = test system: Mus musculus; assay: Hypoglycemic activity in non-fasted db/db […] mouse assessed as reduction in blood glucose level at 25 nmol/kg, ip dosed 30 mins before glucose challenge measured up to 120 mins by OGTT method; assay type: functional, organism-based
[10] = Hepatotoxicity in ICR mouse assessed as effect on aspartate aminotransferase level at 1000 nmol/kg, sc administered once daily for 2 weeks; assay type: toxicity, organism-based; settings: in vivo, 336 h
[11] = test system: Mus musculus; assay: Hypoglycemic activity in non-fasted db/db mouse assessed as duration of time during which decrease in blood glucose concentration is observed at 25 nmol/kg, sc by OGTT method; assay type: functional
[12] = test system: Mus musculus; assay: Increase in serum HDL level in C57BL/6 mouse model of high-fat diet induced obesity at 25 nmol/kg, sc administered once daily for 21 days; assay type: functional, organism-based; settings: time 21.0 day
[13] = target: Glucagon-like peptide 1 receptor (Homo sapiens, UniProt P43220); assay: Agonist activity at human GLP-1R expressed in HEK293 cells assessed as stimulation of cAMP accumulation incubated for 60 mins by HTRF assay; assay type: functional, cell-based
Chain of Glucagon-like peptide 1 receptor (P43220 whole entry): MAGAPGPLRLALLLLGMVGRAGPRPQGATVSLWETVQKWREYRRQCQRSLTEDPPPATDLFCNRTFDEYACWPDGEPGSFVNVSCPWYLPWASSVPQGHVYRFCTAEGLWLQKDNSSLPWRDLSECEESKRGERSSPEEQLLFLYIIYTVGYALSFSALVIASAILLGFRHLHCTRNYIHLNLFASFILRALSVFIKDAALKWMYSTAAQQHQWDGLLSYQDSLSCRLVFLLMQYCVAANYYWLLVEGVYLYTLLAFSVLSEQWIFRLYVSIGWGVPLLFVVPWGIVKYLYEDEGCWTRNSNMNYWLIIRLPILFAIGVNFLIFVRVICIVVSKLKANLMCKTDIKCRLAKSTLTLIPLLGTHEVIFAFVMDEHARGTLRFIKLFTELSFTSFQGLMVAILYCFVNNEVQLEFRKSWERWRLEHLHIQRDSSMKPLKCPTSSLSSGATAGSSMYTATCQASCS

[14] = test system: Mus musculus; assay: Hypoglycemic activity in db/db mouse assessed as improvement in glucose tolerance at 25 nmol/kg, ip dosed 30 mins before glucose challenge and measured up to 180 mins by OGTT method; assay type: functional, organism-based; settings: time 210.0 min
[15] = test system: Mus musculus; assay: Reduction in serum triglyceride in C57BL/6 mouse model of high-fat diet induced obesity at 25 nmol/kg, sc administered once daily for 21 days; assay type: functional, organism-based; settings: time 21.0 day
[16] = test system: Mus musculus; assay: Anorectic activity in non-fasted sc dosed db/db mouse assessed as reduction in food intake treated 30 mins before glucose challenge and measured up to 48 hrs; assay type: functional, organism-based; settings: time min <=2910
[17] = test system: Mus musculus; assay: Insulinotropic activity in db/db mouse assessed as improvement in plasma insulin level at 25 nmol/kg, ip dosed 30 mins before glucose challenge and measured up to 60 mins by ELISA; assay type: functional, organism-based; settings: time 90.0 min
[18] = test system: Mus musculus; assay: Hypoglycemic activity in db/db mouse assessed as decrease in glucose excursion at 25 nmol/kg, ip dosed 30 mins before glucose challenge and measured up to 180 mins by OGTT method; assay type: functional, organism-based; settings: time 210.0 min
[19] = Renal toxicity in ICR mouse assessed as effect on blood urea nitrogen level at 1000 nmol/kg, sc administered once daily for 2 weeks; assay type: organism-based; settings: in vivo, 336 h
[20] = Stability in Sprague-Dawley rat plasma assessed as half life at 1000 ng/ml measured up to 48 hrs under shaking condition by LC-MS/MS analysis; assay type: ADME, cell-free
[21] = test system: Mus musculus; assay: Effect in normal chow diet fed C57BL/6 mouse assessed as reduction in body weight increase at 25 nmol/kg, sc administered once daily for 21 days (reference value: 10.8%); assay type: functional; design: scale not given: the % may be the effect or the level left; settings: time 21 day
[22] = test system: Mus musculus; assay: Anorectic effect in normal chow diet fed C57BL/6 mouse assessed as reduction in food intake at 25 nmol/kg, sc administered once daily for 21 days; assay type: functional, organism-based; settings: time 21.0 day
[23] = test system: Mus musculus; assay: Hypoglycemic activity in non-fasted db/db […] mouse assessed as increase in duration of time under normoglycemic state at 25 nmol/kg, sc by OGTT method relative to liraglutide; assay type: functional, organism-based
[24] = test system: Mus musculus; assay: Reduction in body weight in C57BL/6 mouse model of diet induced obesity at 25 nmol/kg, sc administered once daily for 21 days relative to control; assay type: functional; design: scale not given: the % may be the effect or the level left; settings: time 21 day
[25] = test system: Mus musculus; assay: Hypoglycemic activity in 16 hrs fasted db/db mouse assessed as reduction in blood glucose level at 25 nmol/kg, ip treated 30 mins before glucose challenge and measured at 0 to 12 hrs by multiple OGTT; assay type: functional, organism-based; settings: time 750.0 min
[26] = test system: Mus musculus; assay: Anorectic activity in C57BL/6 mouse model of diet induced obesity assessed as reduction in food intake at 25 nmol/kg, sc administered once daily for 21 days relative to control; assay type: functional, organism-based; settings: time 21.0 day
[27] = Half life in Sprague-Dawley rat at 50 nmol/kg, sc measured up to 24 hrs by LC-MS/MS analysis; assay type: ADME, organism-based; settings: in vivo
[28] = test system: Mus musculus; assay: Hypoglycemic activity in 12 hrs fasted ICR mouse assessed as reduction in blood glucose level at 25 nmol/kg, ip dosed 30 mins before glucose challenge measured up to 120 mins by OGTT method; assay type: functional, organism-based; settings: time 150.0 min
[29] = test system: Mus musculus; assay: Gastric emptying in 6 hrs fasted ICR mouse assessed as reduction in blood paracetamol concentration at 25 nmol/kg, ip dosed 30 mins before paracetamol dosing measured up to 60 mins by LC-MS/MS analysis; assay type: functional, organism-based; settings: time 90.0 min
[30] = test system: Mus musculus; assay: Reduction in serum LDL level in C57BL/6 mouse model of high-fat diet induced obesity at 25 nmol/kg, sc administered once daily for 21 days; assay type: functional, organism-based; settings: time 21.0 day
[31] = test system: Mus musculus; assay: Improvement in fasted blood glucose level in db/db mouse at 25 nmol/kg, sc administered once daily for 21 days; assay type: functional, organism-based; settings: time 21.0 day
[32] = target: Albumin (Homo sapiens, UniProt P02768); assay: Binding affinity to human serum albumin assessed as retention factor by HPAC method; assay type: ADME
Chain of Albumin (P02768 whole entry): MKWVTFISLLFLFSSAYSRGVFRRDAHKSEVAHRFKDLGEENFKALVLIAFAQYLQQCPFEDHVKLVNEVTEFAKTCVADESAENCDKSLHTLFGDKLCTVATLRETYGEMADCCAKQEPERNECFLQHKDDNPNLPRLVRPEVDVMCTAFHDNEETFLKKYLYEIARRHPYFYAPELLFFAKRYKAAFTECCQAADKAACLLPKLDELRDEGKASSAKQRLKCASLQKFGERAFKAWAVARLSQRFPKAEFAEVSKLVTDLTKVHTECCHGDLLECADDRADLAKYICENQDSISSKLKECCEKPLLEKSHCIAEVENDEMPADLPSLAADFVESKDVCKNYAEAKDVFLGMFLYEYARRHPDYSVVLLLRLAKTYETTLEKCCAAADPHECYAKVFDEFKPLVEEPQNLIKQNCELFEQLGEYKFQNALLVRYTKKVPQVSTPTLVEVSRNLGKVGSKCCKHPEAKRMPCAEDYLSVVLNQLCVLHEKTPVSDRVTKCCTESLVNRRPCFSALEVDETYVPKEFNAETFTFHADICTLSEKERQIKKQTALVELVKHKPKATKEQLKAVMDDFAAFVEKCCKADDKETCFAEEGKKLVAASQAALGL

[33] = test system: Mus musculus; assay: Reduction in HbA1c level in db/db mouse at 25 nmol/kg, sc administered once daily for 42 days by OGTT; assay type: functional, organism-based; settings: time 42.0 day
[34] = test system: Mus musculus; assay: Inhibition of fat mass gain in normal chow diet fed C57BL/6 mouse at 25 nmol/kg, sc administered once daily for 21 days; assay type: functional, organism-based; settings: time 21.0 day
[35] = test system: Mus musculus; assay: Improvement in HbA1c level in db/db mouse at 25 nmol/kg, sc administered once daily for 21 days; assay type: functional, organism-based; settings: time 21.0 day
[36] = test system: Mus musculus; assay: Reduction in body fat content in C57BL/6 mouse model of high-fat diet induced obesity at 25 nmol/kg, sc administered once daily for 21 days relative to control; assay type: functional; design: scale not given: the % may be the effect or the level left; settings: time 21 day
[37] = test system: Mus musculus; assay: Hypoglycemic activity in normal chow diet fed C57BL/6 mouse assessed as fasting blood glucose at 25 nmol/kg, sc administered once daily for 21 days; assay type: functional, organism-based; settings: time 21.0 day
[38] = test system: Mus musculus; assay: Reduction in serum total cholesterol in C57BL/6 mouse model of high-fat diet induced obesity at 25 nmol/kg, sc administered once daily for 21 days; assay type: functional, organism-based; settings: time 21.0 day
[39] = Tmax in Sprague-Dawley rat at 50 nmol/kg, sc measured up to 24 hrs by LC-MS/MS analysis; assay type: ADME, organism-based; settings: in vivo

CC[C@H](C)[C@H](NC(=O)[C@H](CC(C)C)NC(=O)[C@H](Cc1c[nH]c2ccccc12)NC(=O)[C@H](CCC(=O)O)NC(=O)[C@@H](NC(=O)[C@H](Cc1ccccc1)NC(=O)[C@H](CCC(=O)O)NC(=O)[C@H](CCCCNC(=O)CC[C@H](NC(=O)C(CCCCCCCCCNC(=O)COC(=O)C(C)(C)CCCOc1cc(C)ccc1C)NC(=O)COC(=O)C(C)(C)CCCOc1cc(C)ccc1C)C(=O)O)NC(=O)[C@H](C)NC(=O)[C@H](C)NC(=O)[C@H](CCC(=O)O)NC(=O)[C@H](CCC(=O)O)NC(=O)[C@H](CCC(=O)O)NC(=O)[C@H](CC(C)C)NC(=O)[C@H](Cc1ccc(O)cc1)NC(=O)[C@H](CCC(=O)O)NC(=O)[C@@H](NC(=O)[C@@H](NC(=O)[C@H](CC(=O)O)NC(=O)[C@H](CC(N)=O)NC(=O)[C@@H](NC(=O)[C@H](Cc1ccc(O)cc1)NC(=O)[C@@H](NC(=O)CNC(=O)[C@H](CCC(=O)O)NC(=O)CNC(=O)[C@@H](N)Cc1cnc[nH]1)[C@@H](C)O)[C@@H](C)O)C(C)C)[C@@H](C)O)[C@@H](C)CC)C(=O)N[C@@H](CCCCN)C(=O)NCC(=O)N[C@@H](CCCCN)C(=O)N1CCC[C@H]1C(=O)N[C@@H](CO)C(=O)N[C@@H](CO)C(=O)NCC(=O)N[C@@H](C)C(=O)N1CCC[C@H]1C(=O)N1CCC[C@H]1C(=O)N1CCC[C@H]1C(=O)N[C@@H](CO)C(=O)O (some centres undefined) (H-HGEGTYTNDVTEYLEEEAAK([γGlu-X1])EFIEWLIKGKPSSGAPPPS-OH)
Activity [1]: Non-Toxic
Activity [2]: Active
Activity [3]: Non-Toxic
Activity [4]: Dose-dependent effect
Activity [5]: inactive
Activity [6]: 48.3%
Activity [7]: Active
Time [8]: 84 days
Activity [9]: Active
Activity [10]: Non-Toxic
Time [11]: 24 h
Activity [12]: Active
EC50 [13]: 170 pM
Activity [14]: Active
Activity [15]: Active
Activity [16]: Dose-dependent effect
Activity [17]: Active
Activity [18]: Active
Activity [19]: Non-Toxic
half-life at 1000 ng/ml [20]: 37.6 h
Activity [21]: 4.5%
Activity [22]: Active
Activity [23]: Active
Activity [24]: 15.4%
Activity [25]: Active
Activity [26]: Active
half-life [27]: 7 h
Activity [28]: Active
Activity [29]: Active
Activity [30]: Active
Activity [31]: Active
K [32]: 13.3
Activity [33]: Active
Activity [34]: Active
Activity [35]: Active
Activity [36]: 29.8%
Activity [37]: inactive
Activity [38]: Active
Tmax [39]: 4 h
